Measured values taken from the supplement of paper PMC10307832.

Columns and labels:
Test in all cases: relative viability (nuclei count vs DMSO), 5 days (fraction); higher = more cells survive
RU-SKI 43 + Phenformin = compound: CC[C@@H](C)CNCC(=O)N1CCC2=C([C@@H]1COC3=CC=CC(=C3)C)C=CS2 [RU-SKI 43] + N=C(N)NC(=N)NCCc1ccccc1 [Phenformin] (partner 250 µM)
In short: (§1)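 After 5 days of treatment, lung cancer cells in 1536-well plates were fixed and stained in a single step (final 0.05% Triton X-100, 1% formaldehyde, 1 ug/ml Hoechst) and their nuclei counted on 4× images. Treatment had been applied by pin tool the day after seeding as one drug alone or as a fixed anchor-drug dose with five library-drug doses (not always all listed) in √10 steps. Relative viability is the nuclei count of treated wells divided by that of vehicle wells, and values are medians of duplicate plates.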

Irinotecan + Trametinib = compound: CCc1c2c(nc3ccc(OC(=O)N4CCC(N5CCCCC5)CC4)cc13)-c1cc3c(c(=O)n1C2)COC(=O)[C@]3(O)CC [Irinotecan] + CC(=O)Nc1cccc(-n2c(=O)n(C3CC3)c(=O)c3c(Nc4ccc(I)cc4F)n(C)c(=O)c(C)c32)c1 [Trametinib] (partner 0.02 µM)
In short: as §1

Irinotecan + Luminespib = compound: CCc1c2c(nc3ccc(OC(=O)N4CCC(N5CCCCC5)CC4)cc13)-c1cc3c(c(=O)n1C2)COC(=O)[C@]3(O)CC [Irinotecan] + CCNC(=O)c1noc(-c2cc(C(C)C)c(O)cc2O)c1-c1ccc(CN2CCOCC2)cc1 [Luminespib] (partner 0.01 µM)
In short: as §1

RU-SKI 43 + Navitoclax = compound: CC[C@@H](C)CNCC(=O)N1CCC2=C([C@@H]1COC3=CC=CC(=C3)C)C=CS2 [RU-SKI 43] + CC1(C)CCC(c2ccc(Cl)cc2)=C(CN2CCN(c3ccc(C(=O)NS(=O)(=O)c4ccc(N[C@H](CCN5CCOCC5)CSc5ccccc5)c(S(=O)(=O)C(F)(F)F)c4)cc3)CC2)C1 [Navitoclax] (partner 0.5 µM)
In short: as §1

Row | Cell Line | relative viability (RU-SKI 43 + Phenformin; first compound 0.1 µM) | relative viability (RU-SKI 43 + Phenformin; first compound 0.3162 µM) | relative viability (RU-SKI 43 + Phenformin; first compound 1 µM) | relative viability (RU-SKI 43 + Phenformin; first compound 3.162 µM) | relative viability (RU-SKI 43 + Phenformin; first compound 10 µM) | relative viability (Irinotecan + Trametinib; first compound 2 µM) | relative viability (Irinotecan + Trametinib; first compound 6.325 µM) | relative viability (Irinotecan + Trametinib; first compound 20 µM) | relative viability (Irinotecan + Luminespib; first compound 0.6325 µM) | relative viability (Irinotecan + Luminespib; first compound 2 µM) | relative viability (Irinotecan + Luminespib; first compound 6.325 µM) | relative viability (Irinotecan + Luminespib; first compound 20 µM) | relative viability (RU-SKI 43 + Navitoclax; first compound 0.1 µM) | relative viability (RU-SKI 43 + Navitoclax; first compound 0.3162 µM) | relative viability (RU-SKI 43 + Navitoclax; first compound 1 µM) | relative viability (RU-SKI 43 + Navitoclax; first compound 3.162 µM) | relative viability (RU-SKI 43 + Navitoclax; first compound 10 µM) | relative viability (Irinotecan + Trametinib; first compound 0.6325 µM)
1 | H3255 | 0.395 | 0.348 | 0.26 | 0.316 | 0.322 | 0.506 | 0.346 | 0.37 | 0.435 | 0.707 | 0.385 | 0.448 | 0.489 | 0.396 | 0.598 | 0.5 | 0.237 | 
2 | NCI-H727 | 0.524 | 0.59 | 0.676 | 0.662 | 0.445 | 0.336 | 0.382 | 0.346 | 0.271 | 0.455 | 0.501 | 0.494 | 0.305 | 0.355 | 0.397 | 0.35 | 0.358 | 0.373
3 | EKVX | 0.221 | 0.197 | 0.261 | 0.235 | 0.193 | 0.35 | 0.279 | 0.15 | 0.81 | 0.667 | 0.379 | 0.154 | 0.989 | 0.893 | 0.96 | 0.982 | 0.67 | 
4 | NCI-H1666 | 0.58 | 0.574 | 0.518 | 0.519 | 0.53 | 0.569 | 0.638 | 0.432 | 0.858 | 0.721 | 0.658 | 0.331 | 0.9 | 1.08 | 0.888 | 0.852 | 0.848 | 0.769
5 | NCI-H1915 | 0.391 | 0.445 | 0.365 | 0.376 | 0.361 | 0.175 | 0.122 | 0.127 | 0.346 | 0.36 | 0.149 | 0.132 | 0.776 | 0.83 | 0.8 | 0.821 | 0.78 | 0.25
6 | EPLC-272H | 0.294 | 0.242 | 0.323 | 0.213 | 0.266 | 0.323 | 0.224 | 0.203 | 0.203 | 0.368 | 0.287 | 0.281 | 1.17 | 1.12 | 1.03 |  | 1.13 | 
7 | NCI-H1792 | 0.267 |  | 0.4 |  | 0.227 | 0.532 | 0.225 | 0.205 | 0.726 | 0.491 | 0.34 | 0.321 | 0.65 | 0.908 | 0.968 | 0.612 | 0.685 | 0.356
8 | RERF-LC-KJ | 0.374 | 0.418 | 0.347 | 0.417 | 0.346 | 0.63 | 0.433 | 0.282 | 0.692 | 0.567 | 0.461 | 0.224 | 1.07 | 1.29 | 1.09 | 1.21 | 0.9 | 0.869
9 | NCI-H2126 | 0.593 | 0.517 | 0.59 | 0.589 | 0.546 | 0.347 | 0.273 | 0.304 |  | 0.773 | 0.379 | 0.167 | 0.776 | 0.863 | 0.875 | 0.875 | 0.862 | 0.546
10 | NCI-H1355 | 0.49 | 0.446 | 0.475 | 0.472 | 0.438 | 0.399 | 0.239 | 0.22 |  | 0.515 | 0.308 | 0.278 | 0.936 | 0.996 | 0.921 | 0.979 | 0.997 | 
11 | A-427 | 0.335 | 0.308 | 0.44 | 0.29 | 0.305 | 0.657 | 0.365 | 0.175 |  | 0.574 | 0.306 | 0.166 | 0.944 | 0.868 | 0.997 |  | 0.961 | 0.719
12 | NCI-H3122 | 0.394 | 0.376 | 0.411 | 0.379 | 0.37 | 0.146 | 0.111 | 0.108 | 0.0615 | 0.114 | 0.0849 | 0.109 | 1.03 | 1 | 0.995 | 0.97 | 0.98 | 0.192
13 | NCI-H1437 | 0.359 | 0.267 | 0.311 | 0.352 | 0.306 | 0.524 | 0.239 | 0.157 | 0.955 | 0.723 | 0.4 | 0.338 | 1.08 | 1.33 | 1.13 | 1.09 | 0.998 | 0.477
14 | COR-L23 | 0.426 | 0.544 | 0.46 | 0.553 | 0.421 | 0.41 | 0.23 | 0.0821 | 0.235 | 0.36 | 0.223 | 0.165 | 0.971 | 0.628 | 1.11 | 1.04 | 1.07 | 0.307
15 | NCI-H1651 | 0.351 | 0.418 | 0.363 | 0.342 | 0.277 | 0.657 | 0.419 | 0.134 | 0.573 | 0.522 | 0.281 | 0.2 | 1.05 | 1.24 | 1.14 | 1.01 | 1.01 | 0.831
16 | NCI-H2087 | 0.46 | 0.552 | 0.477 | 0.526 | 0.406 | 0.151 | 0.137 | 0.196 | 0.158 | 0.183 | 0.2 | 0.261 | 1.05 | 0.94 | 0.943 | 0.911 | 0.998 | 0.0883
17 | ChaGo-K-1 | 0.474 | 0.491 | 0.548 | 0.479 | 0.488 | 0.24 | 0.21 | 0.221 | 0.309 | 0.332 | 0.23 | 0.282 | 1.26 | 0.996 | 1.58 | 0.569 | 0.742 | 0.296
18 | LXF-289 | 0.53 | 0.551 | 0.574 | 0.548 | 0.514 | 0.328 | 0.268 | 0.197 | 0.592 | 0.288 | 0.176 | 0.208 | 0.982 | 0.973 | 1.03 | 0.992 | 0.91 | 0.653
